“Also recorded” adds a separate entry of the source.
Columns and labels:
[1] = molecular target: T1, Lck SH2 domain (Homo sapiens, UniProt P06239); assay: solid phase EIA of Lck SH2 domain binding to CD3 ζ chain ITAM peptide; conditions: screening concentration of 100 μM
T1 construct: GST
Source text: Compounds have been identified that inhibited Lck SH2 domain binding to the CD3 ζ chain ITAM peptide using a combination of CADD and biological assays using a solid phase EIA assay developed in our laboratory.
(§1) Lck kinase is a member of Src family kinases including Fyn, Lyn, and Hck that have SH2 domains sharing significant sequence homologies at βD5, βE4, EF1 and βG4 sites where these amino acids form the pY+3 binding pocket. Accordingly, it was important to test inhibition specificities of compounds against SH2 domains of these Src kinases and other signal transduction molecules involved in TCR proximal signaling. All 42 compounds identified in the above assay were subjected to specificity screening using a solid phase EIA assay using 7 different GST-SH2 domains (Lck, Fyn, Lyn, Hck, Src, She and Grb2).
(§2) All the compounds that had >40% inhibitory effect in the cellular assays were tested in the solid phase specificity screening assay and three compounds, 72, 87 and 241 were identified to be specific to Lck. Due to the fact that these compounds were specific to Lck SH2 domain, in vitro and in vivo assays described below were conducted using these 3 compounds.

[2] = test system: GST-SH2 domains (Fyn, Lyn, Hck, Src, She and Grb2); assay: solid phase EIA specificity screening with other GST-SH2 domains; format: binding; conditions: screening concentration of 100 μM
Source text: as §1, §2

[3] = test system: Mtb-induced adjuvant arthritis; assay: Mtb-induced adjuvant arthritis (AA) in Lewis rats; format: in vivo, Lewis rat
Procedure: FIG. 4A is a line graph showing the effect of SMILS in a preventive treatment regimen. […] Mtb was injected on day 0. ▭—Untreated group, ◯—SMILS treated group.
FIG. 4B is a line graph showing the effect of SMILS in therapeutic-1 treatment regimen. […] Mtb was injected on day 0. ⋄—Untreated group, ◯—SMILS treated group (3 mg/kg body weight), ●—SMILS (1 mg/kg body weight) treatment group.
FIG. 4C is a line graph showing the effects of SMILS in therapeutic-2 treatment regimen. […] Mtb was injected on day 0. ⋄—Untreated group, ●—SMILS (3 mg/kg body weight) treatment group.
Pilot experiments using Lewis rats were carried out to assess the effect of SMILS on Mtb-induced AA. The initial experiments described here were carried out using compound 241. Experiments were carried out to test the efficacy of SMILS (3 mg/kg body weight injected i.p.) in three treatment regimens: i.e., preventive: (SMILS injected at −3, −2, −1, 0 days before Mtb injection); therapeutic 1: at the time of AA induction (SMILS injected at 0, 1, 2, 3, 4 days after Mtb injection); and therapeutic 2: at the time of clinical symptom appearance (SMILS injected at 10, 11, 12, 13 days after Mtb injection).
In addition to the visual scoring of the joint swelling, histological examinations of joints from all 4 paws collected at the peak of the disease were carried out.

T1 sequence (P06239 127-224 limits assumed): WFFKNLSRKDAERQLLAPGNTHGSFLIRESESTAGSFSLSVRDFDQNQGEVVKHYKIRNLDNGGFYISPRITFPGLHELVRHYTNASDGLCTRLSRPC

Compound: O=C(NCCSc1ccccc1)c1cncc(Br)c1 [Compound 241]
- specificity towards Lck SH2 domain [1]: showed specificities towards Lck SH2 domain
- inhibitory activity against the other SH2 domains [2]: little or no inhibitory activity
- joint swelling in Mtb-induced AA, therapeutic 1 regimen ([3]; 3 mg/kg i.p. on days 0, 1, 2, 3, 4 after Mtb, Lewis rats): significantly reduced the joint swellings in all rats
- joint swelling in Mtb-induced AA, therapeutic 2 regimen ([3]; 3 mg/kg i.p. on days 10, 11, 12, 13 after Mtb, Lewis rats): significantly reduced the joint swellings in all rats
- joint swelling in Mtb-induced AA, preventive regimen ([3]; 3 mg/kg i.p. on days -3, -2, -1, 0, Lewis rats): delayed the onset of joint swelling and reduced the severity of joint swellings
- histological examination of joints ([3]; paws collected at the peak of the disease, AA rats): absence of damage to the cartilage and inflammatory cells; also recorded: No infiltration of inflammatory cells is observed in the joint space

Compound: O=C(O)COc1ccccc1/C=N/NC(=O)c1cc(Cl)ccc1O [Compound 72]
- specificity towards Lck SH2 domain [1]: showed specificities towards Lck SH2 domain
- inhibitory activity against the other SH2 domains [2]: little or no inhibitory activity
